Measurements taken from ChEMBL document CHEMBL6103648, “AI-Driven Discovery of Highly Specific and Efficacious hCES2A Inhibitors for Ameliorating Irinotecan-Triggered Gut Toxicity” (J Med Chem, 2025).
pIC50, pKi: −log10 of the molar value. The source made the active and inactive calls. No cut-off for these calls is given here.

Tests used:
Homo sapiens [1] = species: Homo sapiens; assay: Inhibition of human CES2A assessed as decrease in residual activity measured upto 30 mins; settings: dose <= 1.6 nM
[2] = (§1) Covalent inhibition of human CES2A
Homo sapiens [3] = species: Homo sapiens; assay: as §1
Homo sapiens [4] = species: Homo sapiens; assay: Covalent binding affinity to human CES2A Ser228 catalytic site assessed as covalent modification at 10 uM incubated for 4 hrs by nano-LC-MS/MS analysis
[5] = Inhibition of human CES1A using NLMe as substrate preincubated for 3 mins followed by substrate addition measured after 30 mins by chemiluminescence analysis
Caco-2 = assay: Cytotoxicity against human Caco-2 cells at 100 uM incubated for 24 hrs by CCK8 assay; type: toxicity, cell-based; settings: caco-2, 24 h
[6] = Apparent permeability across apical to basal side in human Caco-2 cells at 100 uM incubated for 120 mins by UPLC-MS/MS analysis; type: ADME, cell-based
[7] = Efflux ratio of apparent permeability across basal to apical side over apical to basal side in human Caco-2 cells at 25 uM incubated for 120 mins by UPLC-MS/MS analysis; type: ADME, cell-based
[8] = Efflux ratio of apparent permeability across basal to apical side over apical to basal side in human Caco-2 cells at 50 uM incubated for 120 mins by UPLC-MS/MS analysis; type: ADME, cell-based
Cytochrome P450 2C8 = biological target: T1, Cytochrome P450 2C8 (Homo sapiens, UniProt P10632); assay: Inhibition of CYP2C8 in human liver microsomes using paclitaxel as substrate upto 10 uM; type: ADME, Microsome
T1 sequence (P10632 whole entry): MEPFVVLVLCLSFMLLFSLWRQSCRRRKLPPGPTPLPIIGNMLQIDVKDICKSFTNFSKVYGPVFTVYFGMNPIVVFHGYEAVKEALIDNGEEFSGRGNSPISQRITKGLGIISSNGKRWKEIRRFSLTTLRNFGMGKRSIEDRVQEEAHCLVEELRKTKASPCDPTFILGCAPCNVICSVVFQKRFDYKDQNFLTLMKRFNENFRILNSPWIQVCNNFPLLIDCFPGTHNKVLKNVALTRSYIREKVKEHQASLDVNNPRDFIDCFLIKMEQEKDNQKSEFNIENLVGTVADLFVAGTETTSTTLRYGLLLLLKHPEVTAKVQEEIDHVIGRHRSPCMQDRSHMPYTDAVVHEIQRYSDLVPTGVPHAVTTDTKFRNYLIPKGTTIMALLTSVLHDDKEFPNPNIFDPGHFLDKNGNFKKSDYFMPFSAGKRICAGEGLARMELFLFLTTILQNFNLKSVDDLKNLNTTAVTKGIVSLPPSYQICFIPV

[9] = (§2) Inhibition of CES2A in human HepG2 cells using NCEN as substrate assessed as decrease in green fluorescence preincubated fir 1 hr followed by substrate addition measured after 45 mins by Hoechst33342 staining based analysis; type: cell-based
HepG2 = assay: as §2; type: cell-based; settings: time 105.0 min
Cytochrome P450 2C19 = Cytochrome P450 2C19 (Homo sapiens, UniProt P33261); assay: Inhibition of CYP2C19 in human liver microsomes using omeprazole as substrate upto 10 uM; type: ADME, Microsome
[10] = Sub-acute toxicity in C57BL/6J mouse assessed as change in movement behaviors at 100 mg/kg/day, po treated for 14 days consecutively; type: organism-based; settings: in vivo, 336 h, time 14 day
[11] = Sub-acute toxicity in C57BL/6J mouse assessed as change in AST level at 100 mg/kg/day, po treated for 14 days consecutively; type: organism-based; settings: in vivo, 336 h, time 14 day
[12] = Drug distribution in stomach of C57BL/6J mouse at 100 mg/kg, po administered as single dose measured for 0.5 to 3 hrs by UHPLC-Q-Orbitrap HRMS analysis; type: ADME, organism-based; settings: in vivo, time 0.5-3 hrs
Mus musculus [13] = assay: Inhibition of irinotecan-triggered gut toxicity in C57BL/6J mouse bearing tumor cells assessed as decrease in DAI score at 25 to 50 mg/kg/day, po treated for 14 days; type: functional, organism-based; settings: dose 25-50 mg/kg/day, time 14.0 day
Mus musculus [14] = assay: Inhibition of irinotecan-triggered gut toxicity in C57BL/6J mouse bearing tumor cells assessed as increase in body weight at 25 to 50 mg/kg/day, po treated for 14 days; type: functional, organism-based; settings: dose 25-50 mg/kg/day, time 14.0 day
Mus musculus [15] = assay: Inhibition of irinotecan-triggered gut toxicity in C57BL/6J mouse bearing tumor cells assessed as increase in colonic length at 25 to 50 mg/kg/day, po treated for 14 days; type: functional, organism-based; settings: dose 25-50 mg/kg/day, time 14.0 day
Mus musculus [16] = assay: Inhibition of irinotecan-triggered gut toxicity in C57BL/6J mouse bearing tumor cells assessed as decrease in serum ALT level at 25 to 50 mg/kg/day, po treated for 14 days; type: functional, organism-based; settings: dose 25-50 mg/kg/day, time 14.0 day
Mus musculus [17] = assay: Inhibition of irinotecan-triggered gut toxicity in C57BL/6J mouse bearing tumor cells assessed as decrease in serum CREA level at 25 to 50 mg/kg/day, po treated for 14 days; type: functional, organism-based; settings: dose 25-50 mg/kg/day, time 14.0 day
Mus musculus [18] = assay: Inhibition of irinotecan-induced anti-tumor activity in C57BL/6J mouse bearing tumor cells assessed as increase in tumor volume at 25 to 50 mg/kg/day, po treated for 14 days; type: functional, organism-based; settings: dose 25-50 mg/kg/day, time 14.0 day
Mus musculus [19] = assay: Inhibition of irinotecan-induced anti-tumor activity in C57BL/6J mouse bearing tumor cells assessed as increase in tumor weight at 25 to 50 mg/kg/day, po treated for 14 days; type: functional, organism-based; settings: dose 25-50 mg/kg/day, time 14.0 day

Sequence of Cytochrome P450 2C19 (P33261 whole entry): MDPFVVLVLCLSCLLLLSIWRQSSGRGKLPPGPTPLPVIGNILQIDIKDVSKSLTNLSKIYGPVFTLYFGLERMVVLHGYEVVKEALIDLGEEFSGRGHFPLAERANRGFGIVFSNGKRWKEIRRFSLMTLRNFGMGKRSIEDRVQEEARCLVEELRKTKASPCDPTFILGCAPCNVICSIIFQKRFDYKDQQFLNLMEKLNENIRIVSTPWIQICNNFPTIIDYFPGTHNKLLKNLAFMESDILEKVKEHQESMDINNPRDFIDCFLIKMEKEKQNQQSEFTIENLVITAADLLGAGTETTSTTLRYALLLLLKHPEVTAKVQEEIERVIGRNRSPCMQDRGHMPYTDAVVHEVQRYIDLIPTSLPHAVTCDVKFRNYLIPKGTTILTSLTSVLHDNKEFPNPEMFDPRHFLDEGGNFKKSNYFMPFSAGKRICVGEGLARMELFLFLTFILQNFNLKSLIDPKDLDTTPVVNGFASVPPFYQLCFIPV

CCN(C)C(=O)Oc1ccc(C(=O)N2CCC(Cc3ccccc3)CC2)cc1OC
inhibition (Homo sapiens [1]): Dose-dependent-effect
pKi [2]: 10.19
Kinact (Homo sapiens [3]): 0.033 min⁻¹
Activity (Homo sapiens [4]): Active; Compound Exhibited As Covalent Inhibitor
pIC50 [5]: 5.62
Activity (Caco-2): Non-toxic
Papp A→B at 2 h, 100 µM [6]: 11.7 ×10⁻⁶ cm/s
efflux ratio at 2 h, 25 µM [7]: 0.64
efflux ratio at 2 h, 50 µM [8]: 0.67
inhibition (INH) (Cytochrome P450 2C8): Not_active
pIC50 [9]: 9.44
inhibition (HepG2): Dose-dependent-effect
inhibition (INH) (Cytochrome P450 2C19): Not_active
Activity [10]: Non-toxic
Activity [11]: Non-toxic
Drug uptake [12]: Active
inhibition (Mus musculus [13]): Active
inhibition (Mus musculus [14]): Active
inhibition (Mus musculus [15]): Active
inhibition (Mus musculus [16]): Active
inhibition (Mus musculus [17]): Active
inhibition (Mus musculus [18]): inactive
inhibition (Mus musculus [19]): inactive
